Results reported in patent US8556817B2, “Non-invasive methods for determining the cardiovascular status of an individual” (priority 2005, dated 2013).
Marks after values point to notes of the source that are not given here.

Legend:
[1] = Carotid artery wall layer thickness by non-invasive high-frequency ultrasound, postmenopausal estrogen users vs age-matched nonusers; format: in vivo, women
Experimental: Any artery within the focus depth of the selected measuring equipment that can give information of the separate thicknesses of the artery intima layer and optionally the artery media layer may be used. In one embodiment, the thickness of the artery intima layer and optionally the artery media layer is measured in a superficial artery. Examples of superficial arteries include, but are not limited to, carotid, femoral, radialis, cubital, temporal, popliteal, or dorsalis pedis arteries. Depending on the artery which is selected for measurement, one skilled in the art will appreciate the various non-invasive locations on the individual in which the artery layer thickness may be measured. In one embodiment, the artery is a carotid artery and is examined in front of the sternocleidomastoid muscle, with the individual in the sitting position.
Before beginning the ultrasound imaging, individuals rest quietly for at least 15 minutes. Carotid total wall thickness and the thickness of the individual artery layers are assessed noninvasively using high-resolution ultrasonographic equipment (Osteoson® Minhorst GmbH, Meudt, Germany), fitted with a broad-banded probe with 25 MHz center frequency. The method is validated for the estimation of total artery wall thickness and media layer thickness in non-atherosclerotic superficial arteries in pigs. Briefly, the scan converter enables the image to be frozen at a selected scan-time (2 sec) and the unit permits two-dimensional data acquisition, presenting the results as scans A and B. About 128 lines of echo data are detected as an A-echo signal, sampled by an eight-bit analog-to-digital converter, converted by scanning to a rectangular format and viewed as B-mode images on a 32-colour scale monitor. Image resolution as defined by the product manual is approximately 0.07 mm axially along the ultrasonographic beam and the depth of focus is in the range of 13.5 to 14.5 mm in front of the tip of the probe. The system recognizes objects of about 0.015 mm in size, and the software-driven cursors permit a minimal digital display of 0.02 mm.
The left common carotid artery (LCCA) is examined at the point of the strongest pulse, in front of the sternocleidomastoid muscle, with the individuals sitting in an upright position and looking straight ahead. The three-layer image show the pulsating artery near wall and the artery lumen. Ten B scans (point estimates) are carried out and measurements of the thickness of the whole arterial wall and its layers are performed off-line. Means of the ten measurements are calculated and used in the analysis. The total thickness of the carotid wall is measured from the leading edge of the adventitia to the far edge of the intima. Measurements of the adventitia and intima are made using only the brightest echoes from leading edge to far edge, and the thickness of the media layer is measured as the distance between the two brightest echoes. The coefficient of variation (CV %), calculated from double estimates (based on the mean of 5 measurements each) in 20 subjects, is about 2.4% for total carotid wall thickness, about 4.2% for media thickness and about 8% for intima thickness. The values for artery wall layer given in this study are mean values based on 10 or more measurements. All ultrasonographic assessments are performed by the same investigator, who is blinded to the clinical data of the study subjects.

[2] = Femoral artery wall layer thickness by non-invasive high-frequency ultrasound, postmenopausal estrogen users vs age-matched nonusers; format: in vivo, women
[3] = estrogen users vs age-matched nonusers
[4] = estrogen users vs age-matched nonusers, pair-wise
[5] = postmenopausal estrogen users (n = 17), mean ± SD

Estrogen
Intima thickness, % difference [1, 3]: −25% | Intima/Media ratio, % difference [1, 3]: −54% | Media thickness, % difference [1, 3]: +74% | Thickness of Intima + Media, % difference [1, 3]: +43% | Total wall thickness, % difference [1, 3]: +35% | Intima thickness, Mean difference ± SD [1, 4]: −0.033 ± 0.04 mm | Intima/Media ratio, Mean difference ± SD [1, 4]: −0.25 ± 0.15 | Media thickness, Mean difference ± SD [1, 4]: 0.26 ± 0.22 mm | Thickness of Intima + Media, Mean difference ± SD [1, 4]: 0.22 ± 0.23 mm | Total wall thickness, Mean difference ± SD [1, 4]: 0.23 ± 0.23 mm | Intima thickness [1, 5]: 0.12 ± 0.02 mm | Intima/Media ratio [1, 5]: 0.21 ± 0.0629^a | Media thickness [1, 5]: 0.61 ± 0.19 mm | Thickness of Intima + Media [1, 5]: 0.73 ± 0.19 mm | Total wall thickness [1, 5]: 0.84 ± 0.19 mm | Intima thickness, % difference [2, 3]: −23% | Intima/Media ratio, % difference [2, 3]: −50% | Media thickness, % difference [2, 3]: +51% | Thickness of Intima + Media, % difference [2, 3]: +38% | Total wall thickness, % difference [2, 3]: +25% | Intima thickness, Mean difference ± SD [2, 4]: −0.030 ± 0.04 mm | Intima/Media ratio, Mean difference ± SD [2, 4]: −0.14 ± 0.13 | Media thickness, Mean difference ± SD [2, 4]: 0.27 ± 0.30 mm | Thickness of Intima + Media, Mean difference ± SD [2, 4]: 0.24 ± 0.33 mm | Total wall thickness, Mean difference ± SD [2, 4]: 0.18 ± 0.40 mm | Intima thickness [2, 5]: 0.095 ± 0.02 mm | Intima/Media ratio [2, 5]: 0.14 ± 0.06^0.055 | Media thickness [2, 5]: 0.77 ± 0.29^a mm | Thickness of Intima + Media [2, 5]: 0.87 ± 0.30^a mm | Total wall thickness [2, 5]: 0.91 ± 0.37^b mm
